Reference: patent publication US20030212116A1 (priority 1999, published 2003)

melting point: 57 to 59 °C
SMILES: COC(=O)Cc1ccccc1N=C1N(C)CC(=O)N1C
